In patent US20240424113A1, “CONJUGATES COMPRISING ANTIFUNGALS AND HEAT SHOCK PROTEIN 90 (HSP90) INHIBITORS AND METHODS OF USE THEREOF” (Bright Angel Therapeutics Inc., priority 2021, published 2024):
≈ marks a conversion by molar mass, not a printed value.

Key:
CaCl2 = test: Antifungal sensitivity testing (broth microdilution MIC); format: cell-based; conditions: Table 4; 96-well broth microdilution
Protocol: Antifungal Sensitivity Testing. Minimum inhibitory concentrations (MICs) were determined in flat bottom, 96-well plate format using a modified broth microdilution protocol as previously described (Singh et al., PLoS Pathog. 5, e1000532 (2009); LaFayette et al., PLoS Pathog. 6, 79-80 (2010)). Compounds were formulated in dimethyl sulfoxide (DMSO, Sigma-Aldrich Co.); fluconazole was dissolved in sterile ddH2O. Each compound was tested in duplicate in at least two independent experiments. To test for fungicidal activity, cultures from MIC plates were spotted on YPD agar plates using a spotter (Frogger, V&P Scientific, Inc.). Plates were photographed after 24 h of incubation at 30° C.

[1] = molecular target: Hsp90 Nuclear Binding Domain (NBD) (Candida albicans (strain SC5314 / ATCC MYA-2876) (Yeast), UniProt P46598); test: Surface Plasmon Resonance (SPR) binding, C. albicans Hsp90 NBD; conditions: biotinylated Hsp90 NBD on streptavidin chip, 25° C., 1:1 binding model
Sequence of Hsp90 Nuclear Binding Domain (NBD) (Candida albicans (strain SC5314 / ATCC MYA-2876) (Yeast), UniProt P46598) (P46598 1-218 limits assumed): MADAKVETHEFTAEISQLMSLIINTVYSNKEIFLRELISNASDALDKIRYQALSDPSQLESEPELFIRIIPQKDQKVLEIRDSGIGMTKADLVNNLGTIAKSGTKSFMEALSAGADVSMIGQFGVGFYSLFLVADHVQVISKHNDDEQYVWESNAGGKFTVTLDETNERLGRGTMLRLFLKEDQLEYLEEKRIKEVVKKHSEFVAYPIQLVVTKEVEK
Protocol: (§1) Surface Plasmon Resonance (SPR) Experiments. SPR experiments were performed on a Biacore S200 instrument at 25° C. Biotinylated Hsp90 Nuclear Binding Domain (NBD) was diluted to 40 μg/mL and immobilized on a streptavidin chip (Sensor Chip SA, GE Healthcare) at a density of 2000-2500 response units (RU) on the biosensor surface.
(§2) Recombinant Hsp90 NBDs were expressed and purified as previously described (Whitesell et al., Nat Commun 10, 402 (2019)) with the following modification; Hsp90 NBD expression constructs were modified to encode a C-terminal AviTag for site-specific on-column biotinylation with a BirA biotin-ligase kit (Avidity LLC; BirA-500). Stock protein solutions in 50% glycerol were stored at −20° C. until dilution into relevant buffers. Binding experiments were done in HBS-P (0.01 M HEPES, pH 7.4, 0.15 M NaCl, 0.005% v/v surfactant P20, GE Healthcare) with 2% DMSO at flow rate of 40 μL/min. Test compounds (dilution series) were injected with a 60 s association time and 600 s dissociation time. Resulting sensorgrams were analyzed with a fit to a 1:1 binding model, using BIA evaluation software.

[2] = molecular target: Hsp90 Nuclear Binding Domain (NBD) (Aspergillus fumigatus, UniProt P40292); test: Surface Plasmon Resonance (SPR) binding, A. fumigatus Hsp90 NBD; conditions: biotinylated Hsp90 NBD on streptavidin chip, 25° C., 1:1 binding model; NB undefined
Sequence of Hsp90 Nuclear Binding Domain (NBD) (Aspergillus fumigatus, UniProt P40292) (P40292 whole entry, looked up, the tested form may be a part): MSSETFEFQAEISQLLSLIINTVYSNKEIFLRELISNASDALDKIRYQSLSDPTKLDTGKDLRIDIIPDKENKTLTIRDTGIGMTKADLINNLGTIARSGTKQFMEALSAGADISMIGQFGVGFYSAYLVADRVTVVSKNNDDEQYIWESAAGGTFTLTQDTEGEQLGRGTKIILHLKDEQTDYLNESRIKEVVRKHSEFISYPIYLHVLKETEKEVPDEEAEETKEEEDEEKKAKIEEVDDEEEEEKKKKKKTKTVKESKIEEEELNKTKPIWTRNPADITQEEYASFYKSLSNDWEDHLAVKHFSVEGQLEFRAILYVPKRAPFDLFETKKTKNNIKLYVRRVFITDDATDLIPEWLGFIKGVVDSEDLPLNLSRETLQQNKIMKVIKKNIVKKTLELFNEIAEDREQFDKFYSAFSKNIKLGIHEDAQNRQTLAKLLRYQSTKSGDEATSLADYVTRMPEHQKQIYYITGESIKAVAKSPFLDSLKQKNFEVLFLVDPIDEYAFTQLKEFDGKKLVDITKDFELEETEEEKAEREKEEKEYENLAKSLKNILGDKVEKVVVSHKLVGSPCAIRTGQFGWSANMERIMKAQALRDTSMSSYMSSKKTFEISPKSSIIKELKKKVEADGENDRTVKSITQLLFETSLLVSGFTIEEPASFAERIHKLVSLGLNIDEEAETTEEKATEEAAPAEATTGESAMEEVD
Protocol: as §1, §2

## Nc1nc2sc(CN[C@@H]3CCN(CC(O)(Cn4cncn4)c4ccc(F)cc4F)C3)cc2n(-c2ccc3c(c2)N(c2ccccc2)CCO3)c1=O (stereo partly drawn) [Compound I-77, 3-amino-6-((((3R)-1-(2-(2,4-difluorophenyl)-2-hydroxy-3-(1H-1,2,4-triazol-1-yl)propyl)pyrrolidin-3-yl)amino)methyl)-1-(4-phenyl-3,4-dihydro-2H-benzo[b][1,4]oxazin-6-yl)thieno[2,3-b]pyrazin-2(1H)-one]
CaCl2
  MIC50: 12.5 µM (≈ 8.9 µg/mL)
[1]
  Kd: 187 nM
[2]
  Kd: 373 nM

## Nc1nc2sc(CN[C@H]3CCCN(CC(O)(Cn4cncn4)c4ccc(F)cc4F)C3)cc2n(-c2ccc3c(c2)N(c2ccccc2)CCO3)c1=O (stereo partly drawn) [Compound I-79, 3-amino-6-((((3S)-1-(2-(2,4-difluorophenyl)-2-hydroxy-3-(1H-1,2,4-triazol-1-yl)propyl)piperidin-3-yl)amino)methyl)-1-(4-phenyl-3,4-dihydro-2H-benzo[b][1,4]oxazin-6-yl)thieno[2,3-b]pyrazin-2(1H)-one]
CaCl2
  MIC50: 3 µM (≈ 2.18 µg/mL)
[1]
  Kd: 877 nM
[2]
  Kd: 1020 nM

## Nc1nc2sc(CN[C@H]3[C@@H]4CN(CC(O)(Cn5cncn5)c5ccc(F)cc5F)C[C@@H]43)cc2n(-c2ccc3c(c2)N(c2ccccc2)CCO3)c1=O (stereo partly drawn) [Compound I-81, 3-amino-6-((((1R,5S,6s)-3-(2-(2,4-difluorophenyl)-2-hydroxy-3-(1H-1,2,4-triazol-1-yl)propyl)-3-azabicyclo[3.1.0]hexan-6-yl)amino)methyl)-1-(4-phenyl-3,4-dihydro-2H-benzo[b][1,4]oxazin-6-yl)thieno[2,3-b]pyrazin-2(1H)-one]
CaCl2
  MIC50: 2.5 µM (≈ 1.81 µg/mL)
[1]
  Kd: 825 nM
[2]
  Kd: 1040 nM

## Nc1nc2sc(CNCC(O)(Cn3cncn3)c3ccc(F)cc3F)cc2n(-c2ccc3c(c2)N(c2ccccc2)CCO3)c1=O (stereo not drawn) [Compound I-82, 3-amino-6-(((2-(2,4-difluorophenyl)-2-hydroxy-3-(1H-1,2,4-triazol-1-yl)propyl)amino)methyl)-1-(4-phenyl-3,4-dihydro-2H-benzo[b][1,4]oxazin-6-yl)thieno[2,3-b]pyrazin-2(1H)-one]
CaCl2
  MIC50: 1.6 µM (≈ 1.03 µg/mL)
[1]
  Kd: 826 nM
[2]
  Kd: 1350 nM

## CC1(NCc2cc3c(nc(N)c(=O)n3-c3ccc4c(c3)N(c3ccccc3)CCO4)s2)CCN(CC(O)(Cn2cncn2)c2ccc(F)cc2F)CC1 (stereo not drawn) [Compound I-117, 3-amino-6-(((1-(2-(2,4-difluorophenyl)-2-hydroxy-3-(1H-1,2,4-triazol-1-yl)propyl)-4-methylpiperidin-4-yl)amino)methyl)-1-(4-phenyl-3,4-dihydro-2H-benzo[b][1,4]oxazin-6-yl)thieno[2,3-b]pyrazin-2(1H)-one]
CaCl2
  MIC50: 3 µM (≈ 2.22 µg/mL)
[1]
  Kd: 461 nM
[2]
  Kd: 298 nM

## Nc1nc2sc(CN[C@@H]3CCN(CCC(O)(Cn4cncn4)c4ccc(F)cc4F)C3)cc2n(-c2ccc3c(c2)N(c2ccccc2)CCO3)c1=O (stereo partly drawn) [Compound I-120, 3-amino-6-((((3R)-1-(3-(2,4-difluorophenyl)-3-hydroxy-4-(1H-1,2,4-triazol-1-yl)butyl)pyrrolidin-3-yl)amino)methyl)-1-(4-phenyl-3,4-dihydro-2H-benzo[b][1,4]oxazin-6-yl)thieno[2,3-b]pyrazin-2(1H)-one]
CaCl2
  MIC50: 17.5 µM (≈ 12.7 µg/mL)
[1]
  Kd: 179 nM
[2]
  Kd: 265 nM

## Nc1nc2sc(CN[C@@H]3CCN(CC[C@@](O)(Cn4cncn4)c4ccc(F)cc4F)C3)cc2n(-c2ccc3c(c2)N(c2ccccc2)CCO3)c1=O [Compound I-123, 3-amino-6-((((R)-1-((S)-3-(2,4-difluorophenyl)-3-hydroxy-4-(1H-1,2,4-triazol-1-yl)butyl)pyrrolidin-3-yl)amino)methyl)-1-(4-phenyl-3,4-dihydro-2H-benzo[b][1,4]oxazin-6-yl)thieno[2,3-b]pyrazin-2(1H)-one]
CaCl2
  MIC50: 11.5 µM (≈ 8.35 µg/mL)
[1]
  Kd: 145 nM
[2]
  Kd: 238 nM

## Nc1nc2sc(CN[C@H]3[C@@H]4CN(C[C@](O)(Cn5cncn5)c5ccc(F)cc5F)C[C@@H]43)cc2n(-c2ccc3c(c2)N(c2ccccc2)CCO3)c1=O [Compound I-125, 3-amino-6-((((1R,5S,6R)-3-((S)-2-(2,4-difluorophenyl)-2-hydroxy-3-(1H-1,2,4-triazol-1-yl)propyl)-3-azabicyclo[3.1.0]hexan-6-yl)amino)methyl)-1-(4-phenyl-3,4-dihydro-2H-benzo[b][1,4]oxazin-6-yl)thieno[2,3-b]pyrazin-2(1H)-one]
CaCl2
  MIC50: 5.75 µM (≈ 4.16 µg/mL)
[1]
  Kd: 575 nM
[2]
  Kd: 886 nM

## Nc1nc2sc(CN[C@H]3[C@@H]4CN(C[C@@](O)(Cn5cncn5)c5ccc(F)cc5F)C[C@@H]43)cc2n(-c2ccc3c(c2)N(c2ccccc2)CCO3)c1=O [Compound I-127, 3-amino-6-((((1R,5S,6S)-3-((R)-2-(2,4-difluorophenyl)-2-hydroxy-3-(1H-1,2,4-triazol-1-yl)propyl)-3-azabicyclo[3.1.0]hexan-6-yl)amino)methyl)-1-(4-phenyl-3,4-dihydro-2H-benzo[b][1,4]oxazin-6-yl)thieno[2,3-b]pyrazin-2(1H)-one]
CaCl2
  MIC50: 6.25 µM (≈ 4.52 µg/mL)
[1]
  Kd: 699 nM
[2]
  Kd: 1190 nM

## Nc1nc2sc(CNC3CCN(C(=O)C[C@@](O)(Cn4cncn4)c4ccc(F)cc4F)CC3)cc2n(-c2ccc3c(c2)N(c2ccccc2)CCO3)c1=O [Compound I-129, (S)-3-amino-6-(((1-(3-(2,4-difluorophenyl)-3-hydroxy-4-(1H-1,2,4-triazol-1-yl)butanoyl)piperidin-4-yl)amino)methyl)-1-(4-phenyl-3,4-dihydro-2H-benzo[b][1,4]oxazin-6-yl)thieno[2,3-b]pyrazin-2(1H)-one]
CaCl2
  MIC50: 7 µM (≈ 5.28 µg/mL)
[1]
  Kd: 546 nM
[2]
  Kd: 698 nM

## Nc1nc2sc(CNC3CCN(CC(O)(Cn4cncn4)c4ccc(F)cc4F)CC3(F)F)cc2n(-c2ccc3c(c2)N(c2ccccc2)CCO3)c1=O (stereo not drawn) [Compound I-137, 3-amino-6-(((1-(2-(2,4-difluorophenyl)-2-hydroxy-3-(1H-1,2,4-triazol-1-yl)propyl)-3,3-difluoropiperidin-4-yl)amino)methyl)-1-(4-phenyl-3,4-dihydro-2H-benzo[b][1,4]oxazin-6-yl)thieno[2,3-b]pyrazin-2(1H)-one]
CaCl2
  MIC50: 0.78 µM (≈ 0.594 µg/mL)
[1]
  Kd: 54.1 nM
[2]
  Kd: 127 nM

## Nc1nc2sc(CNC(=O)C3CCN(CC(O)(Cn4cncn4)c4ccc(F)cc4F)CC3)cc2n(-c2ccc3c(c2)N(c2ccccc2)CCO3)c1=O (stereo not drawn) [Compound I-140, N-((3-amino-2-oxo-1-(4-phenyl-3,4-dihydro-2H-benzo[b][1,4]oxazin-6-yl)-1,2-dihydrothieno[2,3-b]pyrazin-6-yl)methyl)-1-(2-(2,4-difluorophenyl)-2-hydroxy-3-(1H-1,2,4-triazol-1-yl)propyl)piperidine-4-carboxamide]
CaCl2
  MIC50: 6.3 µM (≈ 4.75 µg/mL)
[1]
  Kd: 746 nM
[2]
  Kd: 434 nM

## Nc1nc2sc(CNC3CCN(CC(O)(Cn4cncn4)c4ccc(F)cc4F)C(=O)C3)cc2n(-c2ccc3c(c2)N(c2ccccc2)CCO3)c1=O (stereo not drawn) [Compound I-141, 3-amino-6-(((1-(2-(2,4-difluorophenyl)-2-hydroxy-3-(1H-1,2,4-triazol-1-yl)propyl)-2-oxopiperidin-4-yl)amino)methyl)-1-(4-phenyl-3,4-dihydro-2H-benzo[b][1,4]oxazin-6-yl)thieno[2,3-b]pyrazin-2(1H)-one]
CaCl2
  MIC50: 6.3 µM (≈ 4.66 µg/mL)
[1]
  Kd: 342 nM
[2]
  Kd: 620 nM

## Nc1nc2sc(C(=O)NC3CCN(CC(O)(Cn4cncn4)c4ccccn4)CC3)cc2n(-c2ccc3c(c2)N(c2ccccc2)CCO3)c1=O (stereo not drawn) [Compound I-142, 3-amino-N-(1-(2-hydroxy-2-(pyridin-2-yl)-3-(1H-1,2,4-triazol-1-yl)propyl)piperidin-4-yl)-2-oxo-1-(4-phenyl-3,4-dihydro-2H-benzo[b][1,4]oxazin-6-yl)-1,2-dihydrothieno[2,3-b]pyrazine-6-carboxamide]
CaCl2
  MIC50: 25 µM (≈ 17.6 µg/mL)
[1]
  Kd: 2.4 nM
[2]
  Kd: 34.1 nM

## Nc1nc2sc(CNC3CCN(CC(O)(Cn4cncn4)c4ccccc4)CC3)cc2n(-c2ccc3c(c2)N(c2ccccc2)CCO3)c1=O (stereo not drawn) [Compound I-145, 3-amino-6-(((1-(2-hydroxy-2-phenyl-3-(1H-1,2,4-triazol-1-yl)propyl)piperidin-4-yl)amino)methyl)-1-(4-phenyl-3,4-dihydro-2H-benzo[b][1,4]oxazin-6-yl)thieno[2,3-b]pyrazin-2(1H)-one]
CaCl2
  MIC50: 12.5 µM (≈ 8.62 µg/mL)
[1]
  Kd: 114 nM
[2]
  Kd: 161 nM
